Reference: US10081609B2, “Compounds for inducing proliferation and differentiation of cells, and methods of use thereof” (The Broad Institute, Inc., priority 2013, dated 2018)

Legend:
[1] = test system: primary human hepatocytes; assay: Expansion of primary human hepatocytes from six additional cell sources (Ki67/albumin staining, FACS); type: cell-based
Experimental: On day seven, the number of hepatocytes was quantified by FACS analysis (FIG. 6B). Day one untreated controls was added to the bar graph for reference.

iHeps = assay: Differentiation of human iPS-derived hepatocytes (iHeps): morphology and immunofluorescent staining; type: cell-based
Experimental: The ability of compounds of the invention to affect the differentiation and maturation of iHeps was tested. Undifferentiated iPS cells were cultured on Matrigel, supported by primary mouse embryonic fibroblasts. Once confluent, iPS cells were transitioned to differentiation media, with sequential addition of growth factors (Activin A, BMP-4, bFGF, HGF, and OSM) to guide differentiation, first into endoderm, then into hepatic progenitor cells and finally into iHeps. Compound treatment started on day 21 post initiation of differentiation and acted over a period of 9 days. FH1 and FPH2 were used to treat iHeps. FH1 doubled albumin secretion during primary screening (FIG. 4A left) in a dose-responsive manner (FIG. 4A right).
To examine the effects of FH1 and FPH2 at the protein level, AFP, albumin and CYP3A4 levels weew visualized via immunofluorescent staining. […] This is in agreement with primary screening results as well as earlier morphological findings. Untreated cultures had islands that double stain for albumin and the fetal marker AFP, with very little presence of the mature marker CYP3A4.

number of hepatocytes by FACS ([1]; day seven, all donors): increase
Ki67 staining co-localized with albumin labeled hepatocytes ([1]; six additional cell sources, six days in culture): increased
hepatocyte phenotype of treated iHeps (iHeps; treatment from day 21, 9 days): more mature hepatocyte phenotypes
SMILES: Cc1ccc(Cl)cc1N(CC(=O)Nc1c(F)cccc1F)S(C)(=O)=O [FPH2, 2-(N-(5-chloro-2-methylphenyl)methylsulfonamido)-N-(2,6-difluorophenyl)acetamide]
albumin staining (immunofluorescent) (iHeps; treated iHeps): dramatic increases
